Values quoted from earlier work, collected in patent publication US9616027B2, “Pramipexole sustained release tablet formulation and manufacturing method thereof and use thereof” (SHIJIAZHUANG RAPISTEP PHARMACEUTICAL TECHNOLOGY R&D INC., priority 2013, dated 2017).
Like-named read-outs stand apart in the source and are kept apart here.

How the values were obtained:
[1] = in vivo
[2] = not given; remark: listed apart in the source
[3] = system: patients with advanced Parkinson's disease; conditions: with levodopa

Compound: CCCN[C@H]1CCc2nc(N)sc2C1 [Pramipexole, (S)-2-Amino-4,5,6,7-tetrahydro-6-(propylamino) benzothiazole]
- solubility in a pH 2 to pH 7.4 buffer media (pH 2 to pH 7.4 buffer media): higher than 10 mg/ml
- Water-solubility (water): greater than 20 mg/ml
- effect of food intake on absorption [1]: Food intake shall influence absorption
- kinetic characteristics [1]: linear kinetic characteristics
- crystal modification (monohydrate) under grinding ([2]; grinding): does not change under grinding
- stability in the solid state ([2]; solid state): very stable
- stability of solution to light ([2]; solution): light sensitive
- UPDRS score ([3]; 0.375 mg increased to 4.5 mg, 18 weeks of treatment): −11.0
- regulation change of the "off" state ([3]; 18 weeks of treatment): -2.1 h
- UPDRS score ([3]; 33 weeks of treatment): −11.1
